Source: US7812022B2 (GlaxoSmithKline LLC, priority 2004, dated 2010)
pIC50: −log10 of the molar value.

Legend:
ErbB2 or EGFR = biological target: T1, ErbB2 or EGFR; assay: ErbB family substrate phosphorylation enzyme assay (HTRF), Method A or Method B; assay type: biochemical
T1 construct: enzymes purified from a baculovirus expression system; Reagent production was conducted essentially as described in Brignola, P. S., et al, (2002) J. Biol. Chem. 277(2): 1576-1585
Procedure, shortened: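 Baculovirus-expressed EGFR or ErbB2 (0.8 or 10 nM in enzyme mix) phosphorylates biotinylated Peptide C with 20 µM ATP and 0.8 µM peptide (substrate-mix levels), MnCl2, pH 7.5. Reaction ran 90 min at 20 °C with EDTA stop and HTRF anti-phosphotyrosine read. Method A: enzyme added last; Method B: 1 h enzyme–compound preincubation.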

[1] = test system: BT474 and HN5 tumor cell lines; assay: Methylene blue growth inhibition assay (cellular Method A); assay type: cell-based, Human; conditions: Homo sapiens, BT-474, 72 h, 3 days, read-out: Activity (Method): growth inhibition IC50 class
Procedure, shortened: (§1)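 Colo205, BT474 and HN5 cells in DMEM/10% FBS (BT474 10,000, HN5 3,000 cells/well) treated next day with compound in DMEM, 0.3% final DMSO, for 3 days at 37° C. Biomass stained with methylene blue, solubilized, read at OD 620; IC50 interpolated by nonlinear regression from % inhibition versus vehicle.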

Colo205 tumor cell lines = assay: Methylene blue growth inhibition assay (cellular Method A), Colo205; assay type: cell-based, Human; conditions: Homo sapiens, COLO 205, 72 h, 3 days, read-out: Activity (Method): growth inhibition IC50 class
Procedure, shortened: as §1

[2] = Method A: substrate mix added first, reaction started with enzyme mix
[3] = Method B: enzyme mix pre-incubated with compound 1 hour at 20° C., started with substrate mix

pIC50 [1] | pIC50 (Colo205 tumor cell lines) | SMILES | Activity (Method): pIC50 class against ErbB2 or EGFR (ErbB2 or EGFR; [2]) | Activity (Method): pIC50 class against ErbB2 or EGFR (ErbB2 or EGFR; [3])
> 7.00 | > 7.00 | O=C(Nc1cc(-c2nn3ccccc3c2-c2ccnc(Nc3ccc4c(c3)CNCC4)n2)ccc1F)c1c(F)cccc1F [Example 160, 2,6-Difluoro-N-(2-fluoro-5-{3-[2-(1,2,3,4-tetrahydro-7-isoquinolinylamino)-4-pyrimidinyl]pyrazolo[1,5-a]pyridin-2-yl}phenyl)benzamide] |  | +++ (B) (at least one pIC50 measurement of greater than 7 against either ErbB2 or EGFR)
< 6.00 | < 6.00 | O=C(Nc1cccc(-c2nn3ccccc3c2-c2ccnc(Nc3ccc(OCCCS(=O)(=O)O)c(Cl)c3)n2)c1)c1c(F)cccc1F [Example 161, 3-{[2-Chloro-4-({4-[2-(3-{[(2,6-difluorophenyl)carbonyl]amino}-phenyl)pyrazolo[1,5-a]pyridin-3-yl]-2-pyrimidinyl}amino)phenyl]oxy}-1-propanesulfonic acid] |  | +++ (B) (at least one pIC50 measurement of greater than 7 against either ErbB2 or EGFR)
6.00 to 7.00 | 6.00 to 7.00 | COC(=O)CCCOc1ccc(Nc2nccc(-c3c(-c4cccc(NC(=O)c5c(F)cccc5F)c4)nn4ccccc34)n2)cc1Cl [Example 162, Methyl 4-{[2-chloro-4-({4-[2-(3-{[(2,6-difluorophenyl)carbonyl]-amino}phenyl)pyrazolo[1,5-a]pyridin-3-yl]-2-pyrimidinyl}amino)phenyl]oxy}-butanoate] |  | ++ (B) (at least one pIC50 measurement greater than 6 against either ErbB2 or EGFR but no measurement greater than pIC50 of 7)
> 7.00 | < 6.00 | COc1ccc(Nc2nccc(-c3c(-c4cccc(NC(=O)c5c(F)cccc5F)c4)nn4ccccc34)n2)cc1O [Example 166, 2,6-Difluoro-N-{3-[3-(2-{[3-hydroxy-4-(methyloxy)phenyl]amino}-4-pyrimidinyl)pyrazolo[1,5-a]pyridin-2-yl]phenyl}benzamide] |  | +++ (B) (at least one pIC50 measurement of greater than 7 against either ErbB2 or EGFR)
> 7.00 | 6.00 to 7.00 | COc1ccc(Nc2nccc(-c3c(-c4cccc(NC(=O)c5c(F)cccc5F)c4)nn4ccccc34)n2)cc1OCCN(C)C [Example 167, N-{3-[3-(2-{[3-{[2-(Dimethylamino)ethyl]oxy}-4-(methyloxy)phenyl]amino}-4-pyrimidinyl)pyrazolo[1,5-a]pyridin-2-yl]phenyl}-2,6-difluorobenzamide] |  | +++ (B) (at least one pIC50 measurement of greater than 7 against either ErbB2 or EGFR)
> 7.00 | 6.00 to 7.00 | NC1CCc2ccc(Nc3nccc(-c4c(-c5cccc(NC(=O)c6c(F)cccc6F)c5)nn5ccccc45)n3)cc2C1 (stereo not drawn) [Example 174, N-[3-(3-{2-[(7-Amino-5,6,7,8-tetrahydro-2-naphthalenyl)amino]-4-pyrimidinyl}pyrazolo[1,5-g]pyridin-2-yl)phenyl]-2,6-difluorobenzamidedifluorobenzamide] |  | +++ (B) (at least one pIC50 measurement of greater than 7 against either ErbB2 or EGFR)
> 7.00 | 6.00 to 7.00 | NC1Cc2ccc(Nc3nccc(-c4c(-c5cccc(NC(=O)c6c(F)cccc6F)c5)nn5ccccc45)n3)cc2C1 (stereo not drawn) [Example 177, N-[3-(3-{2-[(2-Amino-2,3-dihydro-1H-inden-5-yl)amino]-4-pyrimidinyl}pyrazolo[1,5-a]pyridin-2-yl)phenyl]-2,6-difluorobenzamide] |  | +++ (B) (at least one pIC50 measurement of greater than 7 against either ErbB2 or EGFR)
> 7.00 | 6.00 to 7.00 | CN1CCc2ccc(Nc3nccc(-c4c(-c5cccc(NC(=O)c6c(F)cccc6F)c5)nn5ccccc45)n3)cc2C1 [Example 179, 2,6-Difluoro-N-[3-(3-{2-[(2-methyl-1,2,3,4-tetrahydro-7-isoquinolinyl)amino]-4-pyrimidinyl}pyrazolo[1,5-a]pyridin-2-yl)phenyl]benzamide] |  | +++ (B) (at least one pIC50 measurement of greater than 7 against either ErbB2 or EGFR)
> 7.00 | < 6.00 | CN1CCc2ccc(Nc3nccc(-c4c(-c5cccc(NC(=O)c6cc(F)ccc6F)c5)nn5ccccc45)n3)cc2C1 [Example 189, 2,5-Difluoro-N-[3-(3-{2-[(2-methyl-1,2,3,4-tetrahydro-7-isoquinolinyl)amino]-4-pyrimidinyl}pyrazolo[1,5-a]pyridin-2-yl)phenyl]benzamide] |  | +++ (B) (at least one pIC50 measurement of greater than 7 against either ErbB2 or EGFR)
> 7.00 | 6.00 to 7.00 | O=C1COc2ccc(Nc3nccc(-c4c(-c5cccc(NC(=O)c6c(F)cccc6F)c5)nn5ccccc45)n3)cc2N1 [Example 197, 2,6-Difluoro-N-[3-(3-{2-[(3-oxo-3,4-dihydro-2H-1,4-benzoxazin-6-yl)amino]-4-pyrimidinyl}pyrazolo[1,5-a]pyridin-2-yl)phenyl]benzamide] |  | +++ (B) (at least one pIC50 measurement of greater than 7 against either ErbB2 or EGFR)

The remaining lines, values behind:

SMILES | pIC50 [1] | pIC50 (Colo205 tumor cell lines) | Activity (Method): pIC50 class against ErbB2 or EGFR (ErbB2 or EGFR; [2]) | Activity (Method): pIC50 class against ErbB2 or EGFR (ErbB2 or EGFR; [3])
O=C(Nc1cccc(-c2nn3ccccc3c2-c2ccnc(Nc3ccccc3)n2)c1)c1ccc(Cl)cc1 [Example 142, 4-Chloro-N-(3-{3-[2-(phenylamino)-4-pyrimidinyl]pyrazolo[1,5-a]pyridin-2-yl}phenyl)benzamide] | < 6.00 | < 6.00 | ++ (A) (at least one pIC50 measurement greater than 6 against either ErbB2 or EGFR but no measurement greater than pIC50 of 7) | 
Cn1cccc1C(=O)Nc1cccc(-c2nn3ccccc3c2-c2ccnc(Nc3cccc(C#N)c3)n2)c1 [Example 150, N-{3-[3-(2-(3-Cyanophenyl)amino-4-pyrimidinyl)-pyrazolo[1,5-b]pyridin-2-yl]-phenyl}-1-methyl-1H-pyrrole-2-carboxamide] | > 7.00 | < 6.00 |  | +++ (B) (at least one pIC50 measurement of greater than 7 against either ErbB2 or EGFR)
Cc1cccc2c(-c3ccnc(Nc4cccc(F)c4)n3)c(-c3cccc(NC(=O)c4c(F)cccc4F)c3)nn12 [Example 156, 2,6-Difluoro-N-[3-(3-{2-[(3-fluorophenyl)amino]-pyrimidin-4-yl}-7-methylpyrazolo[1,5-a]pyridin-2-yl)phenyl]benzamide] | 6.00 to 7.00 | < 6.00 | ++ (A) (at least one pIC50 measurement greater than 6 against either ErbB2 or EGFR but no measurement greater than pIC50 of 7) | 
COc1ccc(-c2nn3ccccc3c2-c2ccnc(Nc3ccc4c(c3)CNCC4)n2)cc1NC(=O)c1c(F)cccc1F [Example 159, 2,6-Difluoro-N-(2-(methyloxy)-5-{3-[2-(1,2,3,4-tetrahydro-7-isoquinolinylamino)-4-pyrimidinyl]pyrazolo[1,5-a]pyridin-2-yl}phenyl)benzamide] | < 6.00 | < 6.00 |  | + (B) (no pIC50 measurement greater than 6 against either ErbB2 or EGFR)
Cc1ccc(F)c(C(=O)Nc2cccc(-c3nn4ccccc4c3-c3ccnc(Nc4cccc(OCCN(C)C)c4)n3)c2)c1F [Example 190, N-[3-(3-{2-[(3-{[2-(Dimethylamino)ethyl]oxy}phenyl)amino]-4-pyrimidinyl}pyrazolo[1,5-a]pyridin-2-yl)phenyl]-2,6-difluoro-3-methylbenzamide] | > 7.00 | 6.00 to 7.00 |  | +++ (B) (at least one pIC50 measurement of greater than 7 against either ErbB2 or EGFR)
COc1ccc(-c2nn3ccccc3c2-c2ccnc(Nc3cccc(CN(C)C)c3)n2)cc1NC(=O)c1c(F)cccc1F [Example 192, N-[5-{3-[2-({3-[(dimethylamino)methyl]phenyl}amino)-4-pyrimidinyl]pyrazolo[1,5-a]pyridin-2-yl}-2-(methyloxy)phenyl]-2,6-difluorobenzamide] | < 6.00 | < 6.00 |  | + (B) (no pIC50 measurement greater than 6 against either ErbB2 or EGFR)
C=CCN(C)CCOc1cccc(Nc2nccc(-c3c(-c4cccc(NC(=O)c5c(F)cccc5F)c4)nn4ccccc34)n2)c1 [Example 195, 2,6-Difluoro-N-{3-[3-(2-{[3-({2-[methyl(2-propen-1-yl)amino]ethyl}oxy)phenyl]amino}-4-pyrimidinyl)pyrazolo[1,5-a]pyridin-2-yl]phenyl}benzamide] | 6.00 to 7.00 | < 6.00 |  | +++ (B) (at least one pIC50 measurement of greater than 7 against either ErbB2 or EGFR)
C=CCN(C)CCOc1cccc(Nc2nccc(-c3c(-c4cccc(NC(=O)c5cc(F)ccc5F)c4)nn4ccccc34)n2)c1 [Example 196, 2,5-Difluoro-N-{3-[3-(2-{[3-({2-[methyl(2-propen-1-yl)amino]ethyl}oxy)phenyl]amino}-4-pyrimidinyl)pyrazolo[1,5-a]pyridin-2-yl]phenyl}benzamide] | > 7.00 | 6.00 to 7.00 |  | +++ (B) (at least one pIC50 measurement of greater than 7 against either ErbB2 or EGFR)
